The values that follow come from patent US20220025419A1, “N-GLYCOSYLATION OF PEPTIDES AND PROTEINS” (priority 2013, published 2022).

For experiment [1], the target named is T1, PglB (Campylobacter jejuni subsp. jejuni serotype O:2, UniProt Q0P9C8). The following applies: glycolipid 1-200 μM, peptide 20 μM, PglB 0.44 μM, reaction time <2 h, duplicate.
Procedure: Reaction mixtures were prepared as described above in Example 6 and incubated in a thermo cycler for 2 h at 30° C. Glycosylation was terminated by flash increasing of temperature to 95° C. for 2 minutes. Peptide mixtures were cleaned up and subjected to UPLC. The separation of the glycosylated peptide from unglycosylated was achieved by normal phase using Waters Acquity UPLC column (BEH glycan, 2.1×150 mm, 1.7-μm particles). Concentration of un- and glycosylated peptides was measured by calculating the area of corresponding peaks (FIG. 3.)
The target of experiment [2] is T1, PglB. Description: Synthetic optimization of peptide glycosylation by PglB, HPLC/LC-MS conversion. Conditions: peptide:glycolipid 1:5, RT overnight, HPLC peak areas, FIG. 2a. Set-up: 10His (C); made in house; host or cells: E. coli Rosetta. Type of experiment: biochemical. The procedure: To a 10 μL of purified PglB (40 μM) in 1.5 mL eppendorf tube was added 34 μL of buffer (HEPES 10 mM, pH 7.5 containing 1 mM MnCl2 and 1% Triton-X 100). […] For the gel analysis, 8 μL of reaction mixture was treated with 2 μL of 4X SDS sample buffer and heated to 90° C. for 5 minutes. Analytical HPLC was carried out on a Waters 2795 separation module HPLC instrument equipped with a Jasco FP-920 Intelligent Fluorescent Detector (Excitation at 542 nm, Emission at 572 nm). Phenomenex Jupiter 4μ proteo 90A (250×4.6 mm) column was used with a gradient of 0-20%, 20-45%, 45-95% Acetonitrile with 0.1% formic acid at a flow rate of 1 ml/min. Product eluted with a retention time of 6.6 min and identification was performed using the Micromass LCT (TOF ESI). Conversion of the reaction was quantified by integration of the respective peak areas of product and remaining starting peptide.

Experiment [3] concerns the target T1, PglB. Description: In vitro glycosylation of AcrA protein by PglB, ES-MS analysis. Also noted: 10His (C); made in house; host or cells: E. coli Rosetta. The following applies: AcrA-His6 129 pmol, glycolipid 25.6 nmol, 25° C., 36 hours. The class given is biochemical. From the text: Using the process described in Example 6a the two consensus Asn sites in the C. jejuni AcrA protein (overexpressed and purified from E. coli using pET24 (AcrA-Cys) according to the literature protocol [Kowarik, M. et. al., Science, 2006, 314, 1148-1150; Lazar, M. N. et. al., Glycobiology, 2005, 15 (4), 361-367]) were glycosylated using glycolipid substrates (Examples 2 and 4).

T1 sequence (Q0P9C8 whole entry): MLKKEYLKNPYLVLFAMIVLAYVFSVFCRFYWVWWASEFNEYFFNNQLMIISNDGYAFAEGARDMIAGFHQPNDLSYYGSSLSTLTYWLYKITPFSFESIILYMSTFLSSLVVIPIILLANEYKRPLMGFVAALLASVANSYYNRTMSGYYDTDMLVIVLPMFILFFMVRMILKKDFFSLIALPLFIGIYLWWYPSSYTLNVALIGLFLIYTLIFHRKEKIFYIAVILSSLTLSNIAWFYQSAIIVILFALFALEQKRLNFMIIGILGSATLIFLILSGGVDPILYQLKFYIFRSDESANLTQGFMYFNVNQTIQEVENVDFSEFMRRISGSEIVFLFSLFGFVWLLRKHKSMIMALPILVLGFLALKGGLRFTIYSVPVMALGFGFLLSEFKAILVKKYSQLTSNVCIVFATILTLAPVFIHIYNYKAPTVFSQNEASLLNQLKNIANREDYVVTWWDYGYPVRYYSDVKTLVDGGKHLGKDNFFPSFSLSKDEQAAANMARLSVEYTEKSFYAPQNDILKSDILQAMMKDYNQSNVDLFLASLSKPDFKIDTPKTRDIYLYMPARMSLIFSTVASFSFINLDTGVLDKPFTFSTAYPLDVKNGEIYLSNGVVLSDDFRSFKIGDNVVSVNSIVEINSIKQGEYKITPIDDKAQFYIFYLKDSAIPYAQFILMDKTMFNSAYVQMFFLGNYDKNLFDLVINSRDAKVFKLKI

Consider `CC(=O)NC1C(O)[C@H](O)C(CO)O[C@@H]1OP(=O)(O)OP(=O)(O)OC/C=C(/C)CC/C=C(/C)CC/C=C(/C)CC/C=C(/C)CC/C=C(/C)CC/C=C(\C)CC/C=C(\C)CCC=C(C)C` (stereo partly drawn) [Comparative Example 5, P^1-2-Acetamido-2-deoxy-α-D-glucopyranosyl P^2-(2Z,6Z,10Z,14Z,18Z,22E,26E)-3,7,11,15,19,23,27,31-octamethyldotriaconta-2,6,10,14,18,22,26,30-octaen-1-yl diphosphate, reference compound], for which, in experiment [1], the Km turned out to be 34 ± 10 µM and the kcat amounted to 0.000375 ± 3.5e-05 s⁻¹.

Turning to `CC(=O)NC1[C@@H](OP(=O)(O)OP(=O)(O)OC/C=C(/C)CC/C=C(/C)CC/C=C(/C)CCC=C(C)C)OC(CO)[C@@H](O)[C@@H]1O` (stereo partly drawn) [Example 1, P^1-2-Acetamido-2-deoxy-α-D-glucopyranosyl P^2-(2Z,6Z,10Z)-3,7,11,15-tetramethyl hexadeca-2,6,10,14-tetraen-1-yl diphosphate], in experiment [1], the Km was determined as 77 ± 16 µM and the kcat came out at 0.00039 ± 3.5e-05 s⁻¹.

`CC(=O)NC1[C@@H](OP(=O)([O-])OP(=O)([O-])OC/C=C(/C)CC/C=C(/C)CC/C=C(/C)CC/C=C(/C)CC/C=C(\C)CCC=C(C)C)OC(CO)[C@@H](O)[C@@H]1O.[Na+].[Na+]` (stereo partly drawn) [Example 4, P^1-2-Acetamido-2-deoxy-α-D-glucopyranosyl P^2-(2Z,6Z,10Z,14Z,18E)-3,7,11,15,19,23-hexamethyltetraicosa-2,6,10,14,18,22-hexaen-1-yl diphosphate]: in experiment [2], the “conversion, optimised glycosylation of TAMRA-peptide” value worked out at 92%. Further, in experiment [1], the Km came to 55 ± 10 µM and the kcat came to 0.000385 ± 2.67e-05 s⁻¹. Further, the “conversion to the diglycosylated AcrA protein” value in experiment [3] is over 95%.

As a reminder, the Km is the concentration of substrate that gives half-maximal velocity. The kcat is the maximal rate divided by the concentration of active sites.
